Data as given in patent US9533990B2, “Inhibitors of secretion of hepatitis B virus antigens” (priority 2010, dated 2017).

Row | melting point | SMILES
1 | 246 to 247 °C | Clc1ccc([C@H]2C[C@@H](c3c(Cl)cccc3Cl)n3ncnc3N2)cc1 (relative stereo) [Example 19, cis-5-(4-Chlorophenyl)-7-(2,6-dichlorophenyl)-4,5,6,7-tetrahydro-[1,2,4]triazolo[1,5-a]pyrimidine]
2 | 224 to 225 °C | Fc1ccc([C@@H]2C[C@H](c3ccc(Cl)cc3)Nc3ncnn32)c(Cl)c1 (relative stereo) [Example 21, cis-7-(2-Chloro-4-fluorophenyl)-5-(4-chlorophenyl)-4,5,6,7-tetrahydro-[1,2,4]triazolo[1,5-a]pyrimidine]
3 | 202 to 204 °C | Clc1ccc([C@H]2C[C@@H](c3ccccc3Cl)n3ncnc3N2)cc1 (relative stereo) [Example 22, cis-7-(2-Chlorophenyl)-5-(4-chlorophenyl)-4,5,6,7-tetrahydro[1,2,4]triazolo[1,5-a]pyrimidine]
4 | 194 to 195 °C | CC(C)c1ccc([C@@H]2C[C@H](c3ccc(Cl)cc3)Nc3ncnn32)cc1 (relative stereo) [Example 23, cis-5-(4-Chlorophenyl)-7-(4-isopropylphenyl)-4,5,6,7-tetrahydro[1,2,4]triazolo[1,5-a]pyrimidine]
5 | 210 to 212 °C | Clc1ccc([C@H]2C[C@@H](c3ccccc3)n3ncnc3N2)cc1 (relative stereo) [Example 24, cis-5-(4-Chlorophenyl)-7-phenyl-4,5,6,7-tetrahydro-[1,2,4]triazolo[1,5-a]pyrimidine]
6 | 271 to 272 °C | Fc1cccc(Cl)c1[C@@H]1C[C@H](c2ccccc2Cl)Nc2ncnn21 (relative stereo) [Example 25, cis-7-(2-Chloro-6-fluorophenyl)-5-(2-chlorophenyl)-4,5,6,7-tetrahydro-[1,2,4]triazolo[1,5-a]pyrimidine]
7 | 262 to 263 °C | Fc1cccc(Cl)c1[C@@H]1C[C@H](c2cccc(Cl)c2)Nc2ncnn21 (relative stereo) [Example 26, cis-7-(2-Chloro-6-fluorophenyl)-5-(3-chlorophenyl)-4,5,6,7-tetrahydro-[1,2,4]triazolo[1,5-a]pyrimidine]
8 | 240 to 241 °C | Fc1ccc([C@H]2C[C@@H](c3c(F)cccc3Cl)n3ncnc3N2)cc1 (relative stereo) [Example 27, cis-7-(2-Chloro-6-fluorophenyl)-5-(4-fluorophenyl)-4,5,6,7-tetrahydro-[1,2,4]triazolo[1,5-a]pyrimidine]
9 | 246 to 247 °C | Fc1cccc(Cl)c1[C@@H]1C[C@H](c2ccc(Br)cc2)Nc2ncnn21 (relative stereo) [Example 28, cis-5-(4-Bromophenyl)-7-(2-chloro-6-fluorophenyl)-4,5,6,7-tetrahydro-[1,2,4]triazolo[1,5-a]pyrimidine]
10 | 230 to 231 °C | CCc1ccc([C@H]2C[C@@H](c3c(F)cccc3Cl)n3ncnc3N2)cc1 (relative stereo) [Example 29, cis-7-(2-Chloro-6-fluorophenyl)-5-(4-ethylphenyl)-4,5,6,7-tetrahydro-[1,2,4]triazolo[1,5-a]pyrimidine]
11 | 221 to 222 °C | COc1ccc([C@H]2C[C@@H](c3c(F)cccc3Cl)n3ncnc3N2)cc1 (relative stereo) [Example 30, cis-7-(2-Chloro-6-fluorophenyl)-5-(4-methoxyphenyl)-4,5,6,7-tetrahydro-[1,2,4]triazolo[1,5-a]pyrimidine]
12 | 213 to 215 °C | Fc1cccc(Cl)c1[C@@H]1C[C@H](c2ccc(-c3ccccc3)cc2)Nc2ncnn21 (relative stereo) [Example 31, cis-5-([1,1′-Biphenyl]-4-yl)-7-(2-chloro-6-fluorophenyl)-4,5,6,7-tetrahydro-[1,2,4]triazolo[1,5-a]pyrimidine]
13 | 224 to 225 °C | Fc1cccc(Cl)c1[C@@H]1C[C@H](c2ccc3ccccc3c2)Nc2ncnn21 (relative stereo) [Example 32, cis-7-(2-Chloro-6-fluorophenyl)-5-(naphthalen-2-yl)-4,5,6,7-tetrahydro-[1,2,4]triazolo[1,5-a]pyrimidine]
14 | 252 to 254 °C | Fc1cccc(Cl)c1[C@@H]1C[C@H](c2ccc(Cl)c(Cl)c2)Nc2ncnn21 (relative stereo) [Example 33, cis-7-(2-Chloro-6-fluorophenyl)-5-(3,4-dichlorophenyl)-4,5,6,7-tetrahydro-[1,2,4]triazolo[1,5-a]pyrimidine]
15 | 267 to 269 °C | Fc1cccc(Cl)c1[C@@H]1C[C@H](c2ccc(Cl)cc2Cl)Nc2ncnn21 (relative stereo) [Example 34, cis-7-(2-Chloro-6-fluorophenyl)-5-(2,4-dichlorophenyl)-4,5,6,7-tetrahydro-[1,2,4]triazolo[1,5-a]pyrimidine]
16 | 225 °C | Fc1ccc([C@H]2C[C@@H](c3c(F)cccc3Cl)n3ncnc3N2)c(F)c1 (relative stereo) [Example 35, cis-7-(2-Chloro-6-fluorophenyl)-5-(2,4-difluorophenyl)-4,5,6,7-tetrahydro-[1,2,4]triazolo[1,5-a]pyrimidine]
17 | 223 °C | Cc1ccc([C@H]2C[C@@H](c3c(F)cccc3Cl)n3ncnc3N2)cc1C (relative stereo) [Example 36, cis-7-(2-Chloro-6-fluorophenyl)-5-(3,4-dimethylphenyl)-4,5,6,7-tetrahydro-[1,2,4]triazolo[1,5-a]pyrimidine]
18 | 270 to 271 °C | Fc1cccc(Cl)c1[C@@H]1C[C@H](c2ccccc2)Nc2ncnn21 (relative stereo) [Example 37, cis-7-(2-Chloro-6-fluorophenyl)-5-phenyl-4,5,6,7-tetrahydro-[1,2,4]triazolo[1,5-a]pyrimidine]

Row | melting point | SMILES
19 | 232 °C | Fc1cccc(Cl)c1[C@@H]1C[C@H](c2ccccn2)Nc2ncnn21 (relative stereo) [Example 38, cis-7-(2-Chloro-6-fluorophenyl)-5-(pyridin-2-yl)-4,5,6,7-tetrahydro-[1,2,4]triazolo[1,5-a]pyrimidine]
20 | 213 to 215 °C | Fc1cccc(Cl)c1C1C=C(c2ccc(Cl)cc2)Nc2ncnn21 (centres unmarked) [Example 1, 7-(2-Chloro-6-fluorophenyl)-5-(4-chlorophenyl)-4,7-dihydro-[1,2,4]triazolo[1,5-a]pyrimidine]
21 | 235 °C | Clc1ccc(C2=CC(c3c(Cl)cccc3Cl)n3ncnc3N2)cc1 (centres unmarked) [Example 2, 5-(4-Chlorophenyl)-7-(2,6-dichlorophenyl)-4,7-dihydro-[1,2,4]triazolo[1,5-a]pyrimidine]
22 | 250 to 251 °C | Fc1ccc(C2C=C(c3ccc(Cl)cc3)Nc3ncnn32)c(Cl)c1 (centres unmarked) [Example 4, 7-(2-Chloro-4-fluorophenyl)-5-(4-chlorophenyl)-4,7-dihydro-[1,2,4]triazolo[1,5-a]pyrimidine]
23 | 192 to 193 °C | Fc1cccc(Cl)c1C1C=C(c2ccccc2Cl)Nc2ncnn21 (centres unmarked) [Example 5, 7-(2-Chloro-6-fluorophenyl)-5-(2-chlorophenyl)-4,7-dihydro-[1,2,4]triazolo[1,5-a]pyrimidine]
24 | 246 to 248 °C | Fc1cccc(Cl)c1C1C=C(c2cccc(Cl)c2)Nc2ncnn21 (centres unmarked) [Example 6, 7-(2-Chloro-6-fluorophenyl)-5-(3-chlorophenyl)-4,7-dihydro-[1,2,4]triazolo[1,5-a]pyrimidine]
25 | 203 to 204 °C | Fc1ccc(C2=CC(c3c(F)cccc3Cl)n3ncnc3N2)cc1 (centres unmarked) [Example 7, 7-(2-Chloro-6-fluorophenyl)-5-(4-fluorophenyl)-4,7-dihydro-[1,2,4]triazolo[1,5-a]pyrimidine]
26 | 242 to 243 °C | Fc1cccc(Cl)c1C1C=C(c2ccc(Br)cc2)Nc2ncnn21 (centres unmarked) [Example 8, 5-(4-Bromophenyl)-7-(2-chloro-6-fluorophenyl)-4,7-dihydro-[1,2,4]triazolo[1,5-a]pyrimidine]
27 | 220 to 221 °C | CCc1ccc(C2=CC(c3c(F)cccc3Cl)n3ncnc3N2)cc1 (centres unmarked) [Example 9, 7-(2-Chloro-6-fluorophenyl)-5-(4-ethylphenyl)-4,7-dihydro-[1,2,4]triazolo[1,5-a]pyrimidine]
28 | 217 to 218 °C | COc1ccc(C2=CC(c3c(F)cccc3Cl)n3ncnc3N2)cc1 (centres unmarked) [Example 10, 7-(2-Chloro-6-fluorophenyl)-5-(4-methoxyphenyl)-4,7-dihydro-[1,2,4]triazolo[1,5-a]pyrimidine]
29 | 267 °C | Fc1cccc(Cl)c1C1C=C(c2ccc(-c3ccccc3)cc2)Nc2ncnn21 (centres unmarked) [Example 11, 5-([1,1′-Biphenyl]-4-yl)-7-(2-chloro-6-fluorophenyl)-4,7-dihydro-[1,2,4]triazolo[1,5-a]pyrimidine]
30 | 237 °C | Fc1cccc(Cl)c1C1C=C(c2ccc3ccccc3c2)Nc2ncnn21 (centres unmarked) [Example 12, 7-(2-Chloro-6-fluorophenyl)-5-(naphthalen-2-yl)-4,7-dihydro-[1,2,4]triazolo[1,5-a]pyrimidine]
31 | 246 to 247 °C | Fc1cccc(Cl)c1C1C=C(c2ccc(Cl)c(Cl)c2)Nc2ncnn21 (centres unmarked) [Example 13, 7-(2-Chloro-6-fluorophenyl)-5-(3,4-dichlorophenyl)-4,7-dihydro-[1,2,4]triazolo[1,5-a]pyrimidine]
32 | 209 to 211 °C | Fc1cccc(Cl)c1C1C=C(c2ccc(Cl)cc2Cl)Nc2ncnn21 (centres unmarked) [Example 14, 7-(2-Chloro-6-fluorophenyl)-5-(2,4-dichlorophenyl)-4,7-dihydro-[1,2,4]triazolo[1,5-a]pyrimidine]
33 | 186 to 188 °C | Fc1ccc(C2=CC(c3c(F)cccc3Cl)n3ncnc3N2)c(F)c1 (centres unmarked) [Example 15, 7-(2-Chloro-6-fluorophenyl)-5-(2,4-difluorophenyl)-4,7-dihydro-[1,2,4]triazolo[1,5-a]pyrimidine]
34 | 217 to 218 °C | Cc1ccc(C2=CC(c3c(F)cccc3Cl)n3ncnc3N2)cc1C (centres unmarked) [Example 16, 7-(2-Chloro-6-fluorophenyl)-5-(3,4-dimethylphenyl)-4,7-dihydro-[1,2,4]triazolo[1,5-a]pyrimidine]
35 | 238 to 239 °C | Fc1cccc(Cl)c1-c1cc(-c2ccc(Cl)cc2)nc2ncnn12 [Example 17, 7-(2-Chloro-6-fluorophenyl)-5-(4-chlorophenyl)-[1,2,4]triazolo[1,5-a]pyrimidine]
